# Experimental data as given in patent US8158621B2, “Methods of treating or preventing autoimmune diseases with 2,4-pyrimidinediamine compounds” (Rigel Pharmaceuticals, Inc., priority 2002, dated 2012).
# Like-named read-outs stand apart in the source and are kept apart here.
# How the values were obtained:
# Syk kinase = biological target: T1, Syk kinase (Homo sapiens, UniProt P43405); assay: Syk kinase biochemical fluorescence polarization assay; conditions: isolated Syk kinase, fluorescence polarization, 4 uM ATP
# T1 construct: purchased Upstate, Lake Placid NY
# [1] = test system: cultured human mast cells (CHMC); assay: CHMC low cell density ionomycin activation: tryptase assay; format: cell-based; conditions: low cell density; read-out: CHMC Ionomycin Tryptase
# [2] = test system: cultured human mast cells (CHMC); assay: CHMC low cell density IgE activation: tryptase assay; format: cell-based; conditions: low cell density; read-out: CHMC anti-IgE Tryptase
# How it was run: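 Degranulation is read as supernatant tryptase activity, using tryptase substrate incubated 30 min at room temperature. Before this, CHMC at low density (1000-1500 cells/well) rest 1 hr at 37° C and are triggered with anti-IgE for 30 min at 37° C.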
# [3] = test system: Human Jurkat T-cells (clone N); assay: Jurkat T-cell activation (anti-TCR, CD69 upregulation); format: cell-based
# How it was run: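 Readout is CD69 upregulation by flow cytometry (anti-CD69-APC, 20 min at 4 °C) after 20 h anti-TCR (C305, 500 ng/ml) stimulation at 37 °C.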
IC50 (Syk kinase),IC50 [1],IC50 [2],IC50 [3],"IC50 ([3]; Homo sapiens, Jurkat)",Structure (SMILES)
0.012 µM,> 10 µM,0.195 µM,–,–,CN(C)C(=O)C1Cc2cc(Nc3ncc(F)c(Nc4ccc5c(c4)NC(=O)C(F)(F)O5)n3)ccc2O1 (centres unmarked) [Compound R926983]
0.127 µM,–,0.082 µM,–,–,CNC(=O)Cn1ncc2cc(Nc3ncc(F)c(Nc4ccc5c(c4)NC(=O)C(C)(C)O5)n3)ccc21 [Compound R935437]
0.007 µM,> 10 µM,0.0359 µM,–,–,O=C1Nc2cc(Nc3nc(Nc4ccc5cc[nH]c5c4)ncc3F)ccc2OC1(F)F [Compound R926977]
0.013 µM,23.5 µM,0.109 µM,–,–,CN(C)Cc1cc2cc(Nc3ncc(F)c(Nc4ccc5c(c4)NC(=O)C(F)(F)O5)n3)ccc2o1 [Compound R926979]
0.203 µM,4.13 µM,0.14 µM,–,–,O=C1Nc2cc(Nc3nc(Nc4cc(Cl)cc(Cl)c4)ncc3F)ccc2OC1(F)F [Compound R926985]
3.64 µM,–,0.316 µM,–,–,COc1ccc(Nc2ncc(F)c(Nc3ccc4c(n3)NC(=O)C(C)(C)O4)n2)cc1Cl [Compound R940371]
0.01 µM,> 10 µM,0.137 µM,–,–,COc1ccc(Nc2ncc(F)c(Nc3ccc4c(c3)NC(=O)C(F)(F)O4)n2)cc1Cl [Compound R926981]
0.035 µM,> 10 µM,0.0748 µM,–,–,O=C1COc2ccc(Nc3nc(Nc4cccc(OCC(=O)NC5CCC5)c4)ncc3F)nc2N1 [Compound R945389]
0.459 µM,> 10 µM,0.167 µM,–,–,COc1cc(Nc2ncc(F)c(Nc3ccc4c(c3)NC(=O)C(F)(F)O4)n2)cc(C(F)(F)F)c1 [Compound R926984]
> 10 µM,–,1.7 µM,–,–,CC(C)Oc1ccc(Nc2ncc(F)c(Nc3ccc4c(n3)NC(=O)CO4)n2)cc1 [Compound R945413]
0.009 µM,> 10 µM,0.118 µM,–,–,O=C1COc2ccc(Nc3nc(Nc4cccc(OCC(=O)NC5CC5)c4)ncc3F)nc2N1 [Compound R945390]
0.665 µM,–,0.188 µM,–,–,CC1(C)Oc2ccc(Nc3nc(Nc4cccc(OCC(=O)NC5CCC5)c4)ncc3F)nc2NC1=O [Compound R945424]
0.05 µM,8.5 µM,0.036 µM,–,–,CC1(C)Oc2ccc(Nc3nc(Nc4ccc5c(cnn5CCCO)c4)ncc3F)cc2NC1=O [Compound R935432]
4440 µM,–,0.049 µM,–,–,Cc1cc(C)cc(Nc2ncc(F)c(Nc3ccc4c(n3)NC(=O)CO4)n2)c1 [Compound R945432]
> 10 µM,> 10 µM,> 10 µM,–,–,CC1(C)Oc2ccc(Nc3nc(Nc4ccc(OC(F)(F)F)c(Cl)c4)ncc3F)nc2NC1=O [Compound R940390]
0.041 µM,6.07 µM,0.08 µM,–,–,C[C@@H]1Oc2ccc(Nc3ncc(F)c(Nc4ccc5c(c4)NC(=O)[C@H](C)O5)n3)cc2NC1=O [Compound R908952]
0.127 µM,21 µM,0.123 µM,–,–,COc1ccc(Nc2ncc(F)c(Nc3ccc4c(c3)C(N)CCO4)n2)cc1Cl (racemic) [Compound R950428]
> 10 µM,–,1.32 µM,–,–,COc1ccc(Nc2ncc(F)c(Nc3ccc4c(n3)NC(=O)C(C)(C)O4)n2)cc1F [Compound R940384]
0.558 µM,> 10 µM,0.228 µM,–,–,COc1c(C)cc(Nc2ncc(F)c(Nc3ccc4c(c3)-n3ccnc3CO4)n2)cc1Cl [Compound R935418]

IC50 (Syk kinase),IC50 [1],IC50 [2],IC50 [3],"IC50 ([3]; Homo sapiens, Jurkat)",Structure (SMILES)
0.059 µM,> 10 µM,0.112 µM,–,–,CNC(=O)COc1cccc(Nc2ncc(F)c(Nc3cc(C)c(O)c(Cl)c3)n2)c1 [Compound R945366]
0.004 µM,> 10 µM,0.11 µM,–,–,CNC(=O)C1Cc2cc(Nc3ncc(F)c(Nc4ccc5c(c4)NC(=O)C(F)(F)O5)n3)ccc2O1 (racemic) [Compound R927049]
0.01 µM,12.6 µM,–,–,–,CC1(C)Oc2ccc(Nc3nc(Nc4cc(Cl)c(O)c(Cl)c4)ncc3F)cc2NC1=O [Compound R927051]
0.166 µM,> 10 µM,0.163 µM,–,–,COc1ccc(Nc2ncc(F)c(Nc3ccc4c(n3)NC(=O)CO4)n2)cc1Cl [Compound R945399]
0.053 µM,–,0.06 µM,–,–,Cn1ncc2ccc(Nc3ncc(F)c(Nc4ccc5c(n4)NC(=O)C(C)(C)O5)n3)cc21 [Compound R940389]
0.152 µM,–,0.204 µM,–,–,Fc1cc(Nc2nc(Nc3ccc4cn[nH]c4c3)ncc2F)ccc1Cl [Compound R935414]
0.308 µM,–,0.095 µM,–,–,O=C1COc2ccc(Nc3nc(Nc4ccc(N5CCOCC5)cc4)ncc3F)nc2N1 [Compound R945412]
0.064 µM,–,0.058 µM,–,–,COC(=O)Cn1ncc2cc(Nc3ncc(F)c(Nc4ccc5c(c4)NC(=O)C(C)(C)O5)n3)ccc21 [Compound R935436]
> 10 µM,–,10.5 µM,–,–,N[C@@H]1CCCC[C@H]1Nc1ncc(F)c(Nc2cc(Cl)cc(Cl)c2)n1 [Compound R950440]
0.235 µM,–,0.249 µM,2.02 µM,–,COc1ccc(Nc2nc(Nc3cc(C)c(O)c(Cl)c3)ncc2F)cc1Cl [Compound R926968]
0.007 µM,> 10 µM,–,–,–,COc1cc(Nc2ncc(F)c(Nc3ccc4c(n3)NC(=O)CO4)n2)cc(OC)c1 [Compound R945401]
0.431 µM,–,0.276 µM,–,–,Cc1cc(C)cc(Nc2ncc(F)c(Nc3ccc4c(n3)NC(=O)C(C)(C)O4)n2)c1 [Compound R945433]
0.253 µM,–,0.094 µM,–,–,COc1cc(Nc2ncc(F)c(Nc3ccc4c(n3)NC(=O)C(C)(C)O4)n2)cc(OC)c1 [Compound R940372]
0.168 µM,–,0.131 µM,–,–,O=C1COc2ccc(Nc3nc(Nc4ccc5c(c4)OCCO5)ncc3F)nc2N1 [Compound R945405]
0.15 µM,–,0.239 µM,–,–,NC1CCOc2ccc(Nc3nc(Nc4ccc(Cl)c(Cl)c4)ncc3F)cc21 (racemic) [Compound R950430]
2.12 µM,–,1.1 µM,–,–,CC(=O)N1CCN(c2ccc(Nc3ncc(F)c(NC4CCC4)n3)cc2)CC1 [Compound R945385]
0.196 µM,–,0.166 µM,–,–,COc1cc(Nc2nc(Nc3ccc4cn[nH]c4c3)ncc2F)ccc1F [Compound R935416]
> 10 µM,> 10 µM,–,–,–,CCN(C(C)=O)c1ccc(Nc2ncc(F)c(Nc3ccc4c(n3)NC(=O)C(C)(C)O4)n2)cc1 [Compound R945418]
0.144 µM,–,0.104 µM,–,–,CC1(C)Oc2ccc(Nc3nc(Nc4cccc(O)c4)ncc3F)nc2NC1=O [Compound R940382]

IC50 (Syk kinase),IC50 [1],IC50 [2],IC50 [3],"IC50 ([3]; Homo sapiens, Jurkat)",Structure (SMILES)
1.18 µM,–,0.34 µM,–,–,CC1(C)C(=O)NC(=O)c2cc(Nc3nc(Nc4ccc5cn[nH]c5c4)ncc3F)ccc21 [Compound R908956]
17.9 µM,–,> 10 µM,–,–,COc1c(Cl)cc(Nc2ncc(F)c(Nc3ccc4c(n3)NC(=O)CO4)n2)cc1Cl [Compound R945400]
0.222 µM,–,0.245 µM,–,–,Cc1cccc(C)c1Nc1ncc(F)c(Nc2cccc(N)n2)n1 [Compound R927078]
0.132 µM,–,0.124 µM,–,–,CCOC(=O)CCn1ncc2cc(Nc3ncc(F)c(Nc4ccc5c(c4)NC(=O)C(C)(C)O5)n3)ccc21 [Compound R935431]
0.254 µM,–,0.204 µM,–,–,CNC(=O)COc1cccc(Nc2ncc(F)c(Nc3cccc(N)n3)n2)c1 [Compound R927080]
0.479 µM,–,0.279 µM,–,–,CN1CCN(c2ccc(Nc3ncc(F)c(Nc4ccc5c(n4)NC(=O)C(C)(C)O5)n3)cc2)CC1 [Compound R945427]
0.301 µM,–,0.256 µM,–,–,CN1CCN(c2ccc(Nc3ncc(F)c(Nc4ccc5c(n4)NC(=O)CO5)n3)cc2)CC1 [Compound R945426]
0.929 µM,–,–,2.37 µM,–,O=C(c1cc2cc(Nc3ncc(F)c(Nc4cccc(O)c4)n3)ccc2o1)N1CCNCC1 [Compound R926500]
0.182 µM,–,7 µM,–,–,O=C1COc2ccc(Nc3nc(Nc4ccc(Cl)c(Cl)c4)ncc3F)nc2N1 [Compound R945398]
> 10 µM,–,1.19 µM,–,–,CC1(C)Oc2ccc(Nc3nc(Nc4cc(Cl)cc(Cl)c4)ncc3F)nc2NC1=O [Compound R940387]
0.127 µM,–,0.125 µM,–,–,CC(=O)N1CCN(c2ccc(Nc3ncc(F)c(Nc4ccc5c(n4)NC(=O)C(C)(C)O5)n3)cc2)CC1 [Compound R945419]
> 10 µM,–,0.103 µM,–,–,COc1ccc(Nc2ncc(F)c(Nc3ccc4c(n3)NC(=O)CO4)n2)cc1 [Compound R945404]
0.273 µM,–,0.145 µM,–,–,CC1(C)Oc2ccc(Nc3nc(Nc4ccc(N5CCOCC5)cc4)ncc3F)nc2NC1=O [Compound R945423]
5050 µM,–,–,1.29 µM,–,CCOC(=O)c1cnc(Nc2cccc3cn[nH]c23)nc1Nc1cccc2cn[nH]c12 [Compound R926321]
2.35 µM,–,–,–,8.16 µM,Cc1ccc(Nc2nc(Nc3cccc(O)c3)ncc2F)nc1 [Compound R927017]
19.5 µM,–,3.42 µM,–,–,CC1(C)Oc2ccc(Nc3nc(Nc4cccc(Cl)c4)ncc3F)nc2NC1=O [Compound R940386]
0.515 µM,–,0.053 µM,–,–,COC(=O)N1CCN(c2ccc(Nc3ncc(F)c(Nc4ccc5c(n4)NC(=O)C(C)(C)O5)n3)cc2)CC1 [Compound R945416]
0.022 µM,–,–,0.302 µM,–,CNC(=O)COc1cccc(Nc2ncc(F)c(Nc3ccc4c(c3)NC(=O)CO4)n2)c1 [Compound R908701]
0.418 µM,–,0.112 µM,–,–,COc1ccc(Nc2ncc(F)c(Nc3ccc4c(n3)NC(=O)CO4)n2)cc1F [Compound R945402]
